Where two headings read alike, the source gives them in different places.
Columns and labels:
Type in all cases: in vivo
[1] = tested on: DROSME, AEDSAE, LAPHEG, or HELIVI; assay: Insecticidal activity, active if any of DROSME, AEDSAE, LAPHEG or HELIVI was controlled at 80% or more; conditions: read-out: >80% mortality on any insect species @ 4000 ppm
[2] = tested on: Pseudoperonospora cubensis; assay: Cucumber Downy Mildew (PSPECU), foliar spray, percent disease control; conditions: foliar, read-out: PSPECU percent control
Colletotricum lagenarium = assay: Cucumber Anthracnose (COLLLA), foliar spray, percent disease control; conditions: foliar
Cochliobolus sativus = assay: Spot Blotch of Wheat (COCHSA), foliar spray, percent disease control
[3] = Bipolaris sorokiniana, foliar; read-out: COCHSA percent control
[4] = Bipolaris sorokiniana, foliar, read-out: COCHSA percent control

Compound | pest or weed control at 4000 ppm [1] [%] | pest or weed control at 200 µg/mL [2] [%] | pest or weed control at 200 µg/mL (Colletotricum lagenarium) [%] | pest or weed control at 200 µg/mL (Cochliobolus sativus; [3]) [%] | pest or weed control at 200 µg/mL (Cochliobolus sativus; [4]) [%]
FC(F)(F)c1ccnc(Oc2ccc(CCNc3ncnc4ncc(Cl)nc34)cc2)n1 [Compound 75] | > 80 | 0 to 49 | 0 to 49 | 0 to 49 | –
Cc1cnc2ncnc(NCCc3ccc(Oc4cc(C(F)(F)F)ccn4)cc3)c2n1 [Compound 76] | > 80 | 80 to 100 | 0 to 49 | 0 to 49 | –
CC(Sc1ncnc2nccnc12)c1cccc(C(F)(F)F)c1 (centres unmarked) [Compound 79] | > 80 | 0 to 49 | 0 to 49 | 0 to 49 | –
CC(Nc1ncnc2nccnc12)c1ccc(Oc2cc(C(F)(F)F)ccn2)cc1 (centres unmarked) [Compound 82] | > 80 | 80 to 100 | 0 to 49 | 0 to 49 | –
FC(F)(F)c1ccc(Oc2ccc(OCCNc3ncnc4nccnc34)cc2)nc1 [Compound 84] | > 80 | 80 to 100 | 80 to 100 | 0 to 49 | –
FC(F)(F)c1cc(Cl)nc(Oc2ccc(CCNc3ncnc4nccnc34)cc2)c1 [Compound 90, {2-[4-(6-chloro-4-trifluoromethylpyridin-2-yloxy)-phenyl]-ethyl}-pteridin-4-yl-amine] | > 80 | 80 to 100 | 0 to 49 | 0 to 49 | –
COCCOc1cc(C(F)(F)F)cc(Oc2ccc(CCNc3ncnc4nccnc34)cc2)n1 [Compound 91, (2-{4-[6-(2-Methoxyethoxy)-4-trifluoromethyl-pyridin-2-yloxy]-phenyl}-ethyl)-pteridin-4-yl-amine] | > 80 | 80 to 100 | 0 to 49 | 0 to 49 | –
FC(F)(F)c1nc(Oc2ccc(CCNc3ncnc4nccnc34)cc2)ccc1Cl [Compound 92] | > 80 | 80 to 100 | 0 to 49 | 0 to 49 | –
Fc1cc(CCNc2ncnc3nccnc23)ccc1Oc1cc(C(F)(F)F)ccn1 [Compound 93] | > 80 | 80 to 100 | 80 to 100 | 50 to 79 | –
COc1ccnc(Oc2ccc(CCNc3ncnc4nccnc34)cc2)c1 [Compound 95] | > 80 | 80 to 100 | 80 to 100 | 0 to 49 | –
FC(F)(F)COc1ccnc(Oc2ccc(CCNc3ncnc4nccnc34)cc2)c1 [Compound 96, Pteridin-4-yl-(2-{4-[4-(2,2,2-trifluoroethoxy)-pyridin-2-yloxy]-phenyl}-ethyl)-amine] | > 80 | 80 to 100 | 0 to 49 | 0 to 49 | –
COc1cc(CCNc2ncnc3nccnc23)ccc1Oc1nccc(C(F)(F)F)n1 [Compound 97] | > 80 | 80 to 100 | 0 to 49 | 0 to 49 | –
FC(F)c1ccnc(Oc2ccc(CCNc3ncnc4nccnc34)cc2)c1 [Compound 101] | > 80 | 80 to 100 | 80 to 100 | 0 to 49 | –
Fc1cc(Oc2cc(C(F)(F)F)ccn2)ccc1CCNc1ncnc2nccnc12 [Compound 103] | > 80 | 80 to 100 | 0 to 49 | 0 to 49 | –
N#Cc1ccc(Oc2ccc(CCNc3ncnc4nccnc34)c(F)c2)nc1 [Compound 104] | > 80 | 80 to 100 | 0 to 49 | 0 to 49 | –
Fc1cnc(Oc2ccc(CCNc3ncnc4nccnc34)cc2)c(F)c1C(F)(F)F [Compound 106] | > 80 | 80 to 100 | 0 to 49 | 0 to 49 | –
Fc1cnc(Oc2ccc(CCNc3ncnc4nccnc34)cc2)c(F)c1 [Compound 107] | > 80 | 80 to 100 | 0 to 49 | 0 to 49 | –
Fc1cc(Oc2ccc(CCNc3ncnc4nccnc34)cc2)c(F)cn1 [Compound 108] | > 80 | 80 to 100 | 0 to 49 | 0 to 49 | –
Cc1cc(CCNc2ncnc3nccnc23)ccc1Oc1cc(C(F)(F)F)ccn1 [Compound 109] | > 80 | 80 to 100 | 50 to 79 | 0 to 49 | –
Brc1ccc(Oc2ccc(CCNc3ncnc4nccnc34)cc2)cn1 [Compound 110] | > 80 | 80 to 100 | 0 to 49 | 0 to 49 | –
FC(F)(F)c1ccncc1Oc1ccc(CCNc2ncnc3nccnc23)cc1 [Compound 111] | > 80 | 80 to 100 | 50 to 79 | 0 to 49 | –
Fc1c(F)c(C(F)(F)F)c(F)c(F)c1Oc1ccc(CCNc2ncnc3nccnc23)cc1 [Compound 112] | > 80 | 80 to 100 | 0 to 49 | 0 to 49 | –
Fc1cc(C(F)(F)F)ccc1Oc1ccc(CCNc2ncnc3nccnc23)cc1 [Compound 113] | > 80 | 80 to 100 | 0 to 49 | 0 to 49 | –
Fc1cc(Oc2ncc(C(F)(F)F)cc2F)ccc1CCNc1ncnc2nccnc12 [Compound 114] | > 80 | 80 to 100 | 0 to 49 | 0 to 49 | –
Fc1cc(C(F)(F)F)cnc1Oc1ccc(CCNc2ncnc3ncc(Cl)nc23)cc1 [Compound 118] | > 80 | 0 to 49 | 0 to 49 | 0 to 49 | –
Cc1cnc2ncnc(NCCc3ccc(Oc4cncc(Cl)c4C#N)cc3)c2n1 [Compound 120] | > 80 | 0 to 49 | 0 to 49 | 0 to 49 | –
FC(F)(F)c1cccc(-c2ccc(CCNc3ncnc4nccnc34)cc2)c1 [Compound 122] | > 80 | 50 to 79 | 0 to 49 | – | 0 to 49
c1ccc(-c2ccc(CCNc3ncnc4nccnc34)cc2)cc1 [Compound 125] | > 80 | 80 to 100 | 50 to 79 | – | 0 to 49
FC(F)(F)c1ccc(Oc2ccc(CCNc3ncnc4nccnc34)cn2)cc1 [Compound 126] | > 80 | 80 to 100 | 80 to 100 | 0 to 49 | –

Reference: US8895568B2, “Compositions comprising substituted pteridines as agrochemicals” (Dow AgroSciences LLC, priority 2009, dated 2014)
